These results are taken from ChEMBL document CHEMBL1140230, “Discovery of begacestat, a Notch-1-sparing gamma-secretase inhibitor for the treatment of Alzheimer's disease” (J Med Chem, 2008).

A short description of data set [1]: Inhibition of gamma-secretase expressed in CHO cells expressing human recombinant APP assessed as amyloid beta40 […]. Format: cell-based.
Data set [2] in a line: Selectivity ratio of EC50 for gamma-secretase to EC50 for mouse notch processing.
The subject of data set [3] is Mus musculus. Description: Reduction of amyloid beta42 level in Tg2576 mouse brain at 10 mg/kg, po after 4 hrs. Format: functional. On the set-up: scale not given: the % may be the effect or the level left.
In data set [4] the test system is Mus musculus. Description: Reversal of cognitive deficits in contextual fear conditioning in Tg2576 mouse model at 10 mg/kg, po. Type of data set: functional, organism-based. Set-up: dose 10 mg/kg.
Data set [5] can be described thus: Metabolic stability in monkey microsomes assessed as half life. Format: ADME, Macaca mulatta, Microsome. Particulars: rhesus monkey.
A short description of data set [6]: Metabolic stability in rat microsomes assessed as half life. Type of data set: ADME, Microsome.
The nature of data set [7]: Metabolic stability in dog microsomes assessed as half life. Format: ADME, Canis lupus familiaris, Microsome.
Data set [8] relates to Mus musculus. The experiment in a line: Reduction of amyloid beta42 level in Tg2576 mouse brain at 5 mg/kg, po after 4 hrs. Format: functional. Set-up: scale not given: the % may be the effect or the level left.
Data set [9] has as its system Mus musculus. Description: Reduction of amyloid beta40 level in Tg2576 mouse brain at 5 mg/kg, po after 4 hrs. Set-up: scale not given: the % may be the effect or the level left. Format: functional.
Data set [10] is described as follows: Dissociation constant, pKa of the compound. Format: physicochemical.
A short description of data set [11]: Metabolic stability in Tg2576 mouse microsomes assessed as half life. Type of data set: ADME, Microsome.
The nature of data set [12]: in vitro. Particulars: human, microsomes.
Description: Metabolic stability in human microsomes assessed as half life
Data set [13] is described as follows: Apparent permeability from apical to basolateral side in human Caco-2 cells. Format: ADME, cell-based. On the technique in general: Caco-2 monolayers are a common model of the intestinal barrier.
A short description of data set [14]: Membrane permeability by PAMPA assay. The settings on record: read-out: permeability. Type of data set: ADME.
For data set [15], the system named is Mus musculus. The experiment in a line: Reduction of amyloid beta40 level in Tg2576 mouse brain at 100 mg/kg, po after 4 hrs. Type of data set: functional. On the set-up: scale not given: the % may be the effect or the level left.
The nature of data set [16]: Apparent permeability from basolateral to apical side in human Caco-2 cells. Type of data set: ADME, cell-based.
For data set [17], the system named is Mus musculus. The experiment in a line: Reduction of amyloid beta42 level in Tg2576 mouse brain at 100 mg/kg, po after 4 hrs. Format: functional. On the set-up: scale not given: the % may be the effect or the level left.
Data set [18] is described as follows: Ratio of drug level in brain to plasma in Tg2576 mouse model. Format: ADME.
Data set [19] can be described thus: Solubility in Phosal PG50/Tween-80/water. Format: physicochemical.
Data set [20] is filed under the species Mus musculus. The experiment in a line: Reversal of cognitive deficits in contextual fear conditioning in Tg2576 mouse model. Type of data set: functional, organism-based.

Values after ≈ are worked out from the molar mass of the structure shown. Active and inactive are the calls of the source.

Take `CC[C@H](C)[C@@H](CO)NS(=O)(=O)c1ccc(Cl)s1`: the IC50 in data set [1] worked out at 0.297 µM.

In the case of `CCC(CC)[C@@H](CO)NS(=O)(=O)c1ccc(Cl)cc1`, in data set [1], the IC50 amounted to 0.294 µM. For the same compound, the Ratio EC50 in data set [2] worked out at 14.

For the compound `CC[C@H](C)[C@@H](CO)NS(=O)(=O)c1ccc(Br)cc1`, the IC50 in [1] turned out to be 2.21 µM. The same compound had an Activity in data set [3] of 25%. Also, the result in [4] was Active.

With `O=S(=O)(N[C@H](CO)C(C(F)(F)F)C(F)(F)F)c1ccc(Cl)s1` [BEGACESTAT], the half-life in data set [5] was 26 min; in data set [6], 3 min; in data set [7] it was 31 min; in data set [11], 48 min; in [12] it was greater than 90 min. The IC50 in [1] stood at 0.015 µM. The Activity in [8] amounted to 25%; in [9] it was 37%. The Ratio EC50 in data set [2] came out at 14. The pKa in data set [10] came out at 8.3.

`O=S(=O)(N[C@@H](CO)C(C(F)(F)F)C(F)(F)F)c1ccc(Cl)s1`: in data set [1], the IC50 was found to be 10.7 µM. For the same compound, in data set [2], the Ratio EC50 is 3.7.

Turning to `CC[C@H](C)[C@@H](CO)NS(=O)(=O)c1ccc(Cl)cc1`, the IC50 in [1] is 5.45 µM. For the same compound, the Activity in data set [3] is listed as 25%. For the same compound, in data set [4], the result was Active.

Take `CCC(CC)[C@@H](CO)NS(=O)(=O)c1ccc(Cl)s1` [GSI-136]: the Papp A→B in data set [13] came to 500 nm/s. For the same compound, the half-life in data set [6] came to 1 min; in [11], 2 min; in data set [12], 8 min. The IC50 in data set [1] was 0.025 µM. Further, the Papp in [14] amounted to 125 nm/s. The Activity in data set [15] and in data set [17] was 25% throughout. In addition, the Papp B→A in data set [16] is 430 nm/s. Besides, in data set [2], the Ratio EC50 was determined as 10. Besides, in [10], the pKa stood at 9.6. In addition, the Kp in data set [18] was 2. In [19], this compound had a solubility of 6.7 mg/mL (≈ 21.5 mM).

With `C[C@H](NC(=O)Cc1cc(F)cc(F)c1)C(=O)N[C@H](C(=O)OC(C)(C)C)c1ccccc1`, the Activity in [15] and in data set [17] was 25% throughout. Besides, the result in data set [20] was Active.

As for `O=S(=O)(N[C@H](CO)C(CC(F)(F)F)CC(F)(F)F)c1ccc(Cl)s1`, the half-life in [5] was 5 min; in data set [6], 8 min; in [7], 13 min; in data set [11] it was 24 min; in data set [12], 8 min. Besides, in data set [1], the IC50 was 0.016 µM. Also, the Activity in data set [8] turned out to be 22%; in data set [9], 27%. Further, the Ratio EC50 in [2] stood at 15. The compound also displayed a pKa in [10] of 8.9.

The IC50 is the concentration needed to halve the response being measured. The half-life is the time needed for the level to fall by half in the phase considered. The term pKa denotes the negative logarithm of the acid dissociation constant. In general, Papp A→B refers to the apparent permeability from the apical to the basolateral side of a cell layer. Broadly, the Papp B→A is how fast a substance crosses the layer from the basolateral side. A word on the Kp: it is tissue or fluid exposure divided by exposure in the circulation. As usually defined, the solubility is the dissolved amount per volume that the medium holds.
